In the supplement of paper PMC13380429:

Experiments:
Conditions in all cases: 72 h
Calu-3 [1] = test: relative viability EC50 (midpoint between 100% and the lowest measured viability); higher = less toxic
U2OS [2] = test: as above
Vero E6 [3] = test: as above
Caco-2 [4] = test: drug sensitivity score (DSS) for viability; higher = more toxic; extreme values may be limits of the assay
Calu-3 [5] = test: as above
U2OS [6] = test: as above
Vero E6 [7] = test: as above
Caco-2 [8] = test: cell viability relative to DMSO; higher = less toxic
Calu-3 [9] = test: as above
U2OS [10] = test: as above
Vero E6 [11] = test: as above
Caco-2 [12] = test: relative viability EC50 (midpoint between 100% and the lowest measured viability); higher = less toxic
HepG2 [13] = test: as above
HepG2 [14] = test: drug sensitivity score (DSS) for viability; higher = more toxic; extreme values may be limits of the assay
HepG2 [15] = test: cell viability relative to DMSO; higher = less toxic

| Structure (SMILES) | relative viability EC50 (Calu-3 [1]) | relative viability EC50 (U2OS [2]) | relative viability EC50 (Vero E6 [3]) | drug sensitivity score (Caco-2 [4]) | drug sensitivity score (Calu-3 [5]) | drug sensitivity score (U2OS [6]) | drug sensitivity score (Vero E6 [7]) | cell viability (Caco-2 [8]; 1 nM) | cell viability (Caco-2 [8]; 10 nM) | cell viability (Caco-2 [8]; 100 nM) | cell viability (Caco-2 [8]; 1000 nM) | cell viability (Caco-2 [8]; 10000 nM) | cell viability (Calu-3 [9]; 1 nM) | cell viability (Calu-3 [9]; 10 nM) | cell viability (Calu-3 [9]; 100 nM) | cell viability (Calu-3 [9]; 1000 nM) | cell viability (Calu-3 [9]; 10000 nM) | cell viability (U2OS [10]; 1 nM) | cell viability (U2OS [10]; 10 nM) | cell viability (U2OS [10]; 100 nM) | cell viability (U2OS [10]; 1000 nM) | cell viability (U2OS [10]; 10000 nM) | cell viability (Vero E6 [11]; 1 nM) | cell viability (Vero E6 [11]; 10 nM) | cell viability (Vero E6 [11]; 100 nM) | cell viability (Vero E6 [11]; 1000 nM) | cell viability (Vero E6 [11]; 10000 nM) | relative viability EC50 (Caco-2 [12]) | relative viability EC50 (HepG2 [13]) | drug sensitivity score (HepG2 [14]) | cell viability (HepG2 [15]; 1 nM) | cell viability (HepG2 [15]; 10 nM) | cell viability (HepG2 [15]; 100 nM) | cell viability (HepG2 [15]; 1000 nM) | cell viability (HepG2 [15]; 10000 nM) |
| --- | --- | --- | --- | --- | --- | --- | --- | --- | --- | --- | --- | --- | --- | --- | --- | --- | --- | --- | --- | --- | --- | --- | --- | --- | --- | --- | --- | --- | --- | --- | --- | --- | --- | --- | --- |
| C#C[C@]1(OC(C)=O)CC[C@H]2[C@@H]3CCC4=CC(=O)CC[C@@H]4[C@H]3CC[C@@]21C [norethindrone-acetate] | > 10 µM | > 10 µM | > 10 µM | 2.3 | 0 | 0 | 0 | 91.8% | 97.1% | 84.7% | 95% | 70.4% | 93.2% | 82.9% | 90.8% | 104% | 95.6% | 100% | 99.6% | 98.5% | 98.5% | 94.9% | 104% | 108% | 110% | 90.5% | 98.1% | – | – | – | – | – | – | – | – |
| C[C@]12CC[C@H](O)CC1=CC[C@@H]1[C@@H]2CC[C@]2(C)C(n3cnc4ccccc43)=CC[C@@H]12 [galeterone] | > 10 µM | > 10 µM | – | 4.6 | 0 | 0 | 1.1 | 95.6% | 102% | 89.1% | 88.3% | 45.9% | 91.9% | 95% | 85.5% | 99.6% | 90.2% | 96.4% | 102% | 93.4% | 95.1% | 92.9% | 100% | 99% | 102% | 99.2% | 74.5% | 1.72 µM | > 10 µM | 0.9 | 97.8% | 102% | 97.5% | 99.3% | 77.4% |
| CCC(=O)O[C@]1(C(=O)CCl)[C@@H](C)C[C@H]2[C@@H]3CCC4=CC(=O)C=C[C@]4(C)[C@@]3(F)[C@@H](O)C[C@@]21C [clobetasol-propionate] | > 10 µM | > 10 µM | > 10 µM | – | 0 | 0 | 0 | – | – | – | – | – | 91.5% | 96% | 82.2% | 94% | 89.7% | 95.7% | 95.7% | 93.1% | 90.7% | 91.2% | 99.6% | 96.5% | 107% | 93.4% | 95.2% | – | > 10 µM | 0.8 | 107% | 105% | 94.5% | 99.4% | 77.8% |
| Cc1cn2nc([C@@H]3CCCCN3C(=O)c3cc(Cl)ccc3NS(C)(=O)=O)cc2nc1N1CC[C@H](N)C1 [presatovir] | > 10 µM | > 10 µM | > 10 µM | 3 | 0 | 1.1 | 0 | 93.8% | 95.2% | 102% | 96.2% | 53.9% | 102% | 107% | 102% | 94% | 98.5% | 101% | 97% | 100% | 98.3% | 76.6% | 98.8% | 103% | 94.4% | 96.8% | 102% | – | > 10 µM | 0 | 98.8% | 110% | 104% | 106% | 105% |
| CN1[C@H]2C[C@H](OC(=O)[C@H](CO)c3ccccc3)C[C@@H]1[C@@H](O)C2 [anisodamine] | > 10 µM | > 10 µM | – | 0 | 0 | 0 | – | 107% | 108% | 101% | 115% | 99.2% | 101% | 103% | 105% | 91.8% | 108% | 98% | 105% | 98.8% | 101% | 97.6% | – | – | – | – | – | > 10 µM | > 10 µM | 0 | 104% | 111% | 79.8% | 104% | 102% |
| CCCS(=O)(=O)Nc1ccc(F)c(C(=O)c2c[nH]c3ncc(Cl)cc23)c1F [PLX4720] | > 10 µM | > 10 µM | > 10 µM | 1.7 | 0 | 0 | 0.2 | 96.8% | 96.9% | 93.6% | 91% | 73.3% | 93.4% | 89.8% | 100% | 106% | 106% | 102% | 95.8% | 97.1% | 100% | 101% | 106% | 100% | 100% | 106% | 82.5% | – | 1.82 µM | 4.2 | 104% | 94.6% | 104% | 90.9% | 49.5% |
| N[C@@H](CCC(=O)N[C@@H](CS)C(=O)NCC(=O)O)C(=O)O [glutathione] | > 10 µM | > 10 µM | – | 0 | 0 | 0 | – | 92.7% | 90.7% | 105% | 93.6% | 99.4% | 98.1% | 93.2% | 98.8% | 101% | 99.7% | 95.3% | 97.3% | 99.5% | 96.6% | 102% | – | – | – | – | – | > 10 µM | > 10 µM | 0 | 108% | 106% | 97.3% | 99.3% | 104% |
